Experimental data: ChEMBL document CHEMBL3351909, “In vitro and in vivo characterization of a benzofuran derivative, a potential anticancer agent, as a novel Aurora B kinase inhibitor” (Eur J Med Chem, 2015)
The source made the active and inactive calls. The rule behind the calls is not given here.

Key:
[1] = Cytotoxicity against human QGY7401 cells after 96 hrs by CCK-8 assay; format: functional, cell-based
[2] = Antitumor activity against human QGY7401 cells xenografted in nude mouse assessed as inhibition of tumor growth at 10 mg/kg, ip qd administered for 14 days measured on day 18 relative to control; format: functional; settings: route intraperitoneal, read-out: TGI
[3] = biological target: Vascular endothelial growth factor receptor 3 (Homo sapiens, UniProt P35916); assay: Inhibition of recombinant FLT4 (unknown origin) after 60 mins by z'-lyte kinase assay
[4] = biological target: Mitogen-activated protein kinase 1 (Homo sapiens, UniProt P28482); assay: Inhibition of recombinant MAPK1 (unknown origin) after 60 mins by z'-lyte kinase assay
[5] = biological target: Glycogen synthase kinase-3 beta (Homo sapiens, UniProt P49841); assay: Inhibition of recombinant GSK-3 beta (unknown origin) after 60 mins by z'-lyte kinase assay
[6] = Cytotoxicity against human FOCUS cells after 96 hrs by CCK-8 assay; format: functional, cell-based
[7] = tested on: CNE; assay: Cytotoxicity against human CNE cells after 96 hrs by CCK-8 assay; format: functional, cell-based
[8] = biological target: T1, Aurora kinase B (Homo sapiens, UniProt Q96GD4); assay: Inhibition of AURKB in human HepG cells assessed as reduction in histone H3 phosphorylation at 5 to 20 uM after 48 hrs by […] analysis; format: cell-based
[9] = tested on: Mus musculus; assay: Toxicity in nude mouse xenografted with human QGY7401 cells at 10 to 20 mg/kg, ip qd administered for 14 days measured on day 18; format: organism-based; parameters: dose 10-20 mg/kg, route intraperitoneal; settings: in vivo, 336 h
[10] = biological target: T1, Aurora kinase B; assay: Inhibition of AURKB in human SW620 cells assessed as reduction in histone H3 expression at 5 to 20 uM after 48 hrs by Western blotting analysis; format: cell-based; settings: SW-620
[11] = tested on: LoVo; assay: Cytotoxicity against human LoVo cells after 96 hrs by CCK-8 assay; format: functional, cell-based
[12] = tested on: Homo sapiens; assay: Inhibition of histone H3 phosphorylation in human QGY7401 cells xenografted in ip dosed nude mouse administered qd for 14 days by Hematoxylin and eosin staining-based microscopic analysis; format: functional, organism-based
[13] = tested on: SW-620; assay: Inhibition of colony formation in human SW620 cells after 96 hrs by crystal violet staining-based assay; format: functional, cell-based
[14] = biological target: T2, Aurora kinase A (Homo sapiens, UniProt O14965); assay: Inhibition of recombinant AURKA (unknown origin) after 60 mins by z'-lyte kinase assay
[15] = biological target: T2, Aurora kinase A; assay: Binding affinity to AURKA (unknown origin)
[16] = biological target: T1, Aurora kinase B; assay: Inhibition of AURKB in human HeLa cells assessed as reduction in histone H3 expression at 5 to 20 uM after 48 hrs by Western blotting analysis; format: cell-based
[17] = Cytotoxicity against human HCT116 cells after 96 hrs by CCK-8 assay; format: functional, cell-based; settings: HCT-116, 96 h
[18] = biological target: RAC-alpha serine/threonine-protein kinase (Homo sapiens, UniProt P31749); assay: Inhibition of recombinant AKT1 (unknown origin) after 60 mins by z'-lyte kinase assay
[19] = biological target: Aurora kinase C (Homo sapiens, UniProt Q9UQB9); assay: Inhibition of recombinant AURKC (unknown origin) after 60 mins by z'-lyte kinase assay
[20] = biological target: T1, Aurora kinase B; assay: Inhibition of AURKB in human SW620 cells assessed as reduction in Aurora B expression expression at 5 to 20 uM after 48 hrs by Western blotting analysis; format: cell-based; settings: SW-620
[21] = biological target: Platelet-derived growth factor receptor alpha (Homo sapiens, UniProt P16234); assay: Inhibition of recombinant PDGFR alpha (unknown origin) after 60 mins by z'-lyte kinase assay
[22] = Cytotoxicity against human CaSki cells after 96 hrs by CCK-8 assay; format: functional, cell-based; settings: Ca-Ski
[23] = tested on: HeLa; assay: Inhibition of colony formation in human HeLa cells after 96 hrs by crystal violet staining-based assay; format: functional, cell-based
[24] = tested on: SW-620; assay: Growth inhibition of human SW620 cells at 5 to 20 uM after 96 hrs by CCK-8 assay; format: functional, cell-based
[25] = biological target: T1, Aurora kinase B; assay: Inhibition of AURKB in human HepG2 cells assessed as reduction in histone H3 expression at 5 to 20 uM after 48 hrs by Western blotting analysis; format: cell-based
[26] = biological target: T1, Aurora kinase B; assay: Inhibition of AURKB in human HeLa cells assessed as reduction in histone H3 phosphorylation at 5 to 20 uM after 48 hrs by Western blotting analysis; format: cell-based
[27] = tested on: SW-620; assay: Cytotoxicity against human SW620 cells after 96 hrs by CCK-8 assay; format: functional, cell-based; settings: SW-620, 96 h
[28] = biological target: T1, Aurora kinase B; assay: Binding affinity to AURKB (unknown origin)
[29] = biological target: Vascular endothelial growth factor receptor 2 (Homo sapiens, UniProt P35968); assay: Inhibition of recombinant KDR (unknown origin) after 60 mins by z'-lyte kinase assay
[30] = tested on: HeLa; assay: Cell cycle arrest in human HeLa cells assessed as accumulation at G2/M phase at 20 uM after 48 hrs by flow cytometry relative to control; format: functional
[31] = tested on: HepG2; assay: Cytotoxicity against human HepG2 cells after 96 hrs by CCK-8 assay; format: functional, cell-based; settings: HepG2, 96 h
[32] = Cytotoxicity against human Hep3B cells after 96 hrs by CCK-8 assay; format: functional, cell-based, Hep 3B2
[33] = tested on: HepG2; assay: Cell cycle arrest in human HepG2 cells assessed as accumulation at G2/M phase at 20 uM after 48 hrs by flow cytometry relative to control; format: functional
[34] = biological target: T1, Aurora kinase B; assay: Inhibition of AURKB in human SW620 cells assessed as reduction in histone H3 phosphorylation at 5 to 20 uM after 48 hrs by Western blotting analysis; format: cell-based; settings: SW-620
[35] = Antitumor activity against human QGY7401 cells xenografted in nude mouse assessed as reduction in tumor weight at 10 mg/kg, ip qd administered for 14 days measured on day 18 (reference value: 2.24 +/- 0.20 g); format: functional; settings: route intraperitoneal

T1 sequence (Q96GD4 whole entry): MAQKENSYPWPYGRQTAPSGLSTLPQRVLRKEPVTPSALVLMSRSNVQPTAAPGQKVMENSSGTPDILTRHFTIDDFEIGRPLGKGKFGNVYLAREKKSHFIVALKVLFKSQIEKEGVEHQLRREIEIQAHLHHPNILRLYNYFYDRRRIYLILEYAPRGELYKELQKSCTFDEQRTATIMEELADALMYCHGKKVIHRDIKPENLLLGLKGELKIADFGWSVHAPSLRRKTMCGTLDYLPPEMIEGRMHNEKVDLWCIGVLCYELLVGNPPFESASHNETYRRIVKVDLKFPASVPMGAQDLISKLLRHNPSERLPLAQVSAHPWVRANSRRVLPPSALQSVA
T2 sequence (O14965 whole entry): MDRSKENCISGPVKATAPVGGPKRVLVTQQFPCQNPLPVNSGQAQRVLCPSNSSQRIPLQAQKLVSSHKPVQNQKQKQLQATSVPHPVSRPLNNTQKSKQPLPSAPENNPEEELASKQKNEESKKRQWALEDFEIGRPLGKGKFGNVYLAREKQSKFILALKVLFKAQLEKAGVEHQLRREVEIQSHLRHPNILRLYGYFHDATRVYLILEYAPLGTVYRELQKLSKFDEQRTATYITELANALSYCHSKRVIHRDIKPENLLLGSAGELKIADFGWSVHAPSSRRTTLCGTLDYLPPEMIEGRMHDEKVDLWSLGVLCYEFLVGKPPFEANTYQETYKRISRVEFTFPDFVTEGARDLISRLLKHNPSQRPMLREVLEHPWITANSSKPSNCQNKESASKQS
Sequence of Platelet-derived growth factor receptor alpha (P16234 whole entry): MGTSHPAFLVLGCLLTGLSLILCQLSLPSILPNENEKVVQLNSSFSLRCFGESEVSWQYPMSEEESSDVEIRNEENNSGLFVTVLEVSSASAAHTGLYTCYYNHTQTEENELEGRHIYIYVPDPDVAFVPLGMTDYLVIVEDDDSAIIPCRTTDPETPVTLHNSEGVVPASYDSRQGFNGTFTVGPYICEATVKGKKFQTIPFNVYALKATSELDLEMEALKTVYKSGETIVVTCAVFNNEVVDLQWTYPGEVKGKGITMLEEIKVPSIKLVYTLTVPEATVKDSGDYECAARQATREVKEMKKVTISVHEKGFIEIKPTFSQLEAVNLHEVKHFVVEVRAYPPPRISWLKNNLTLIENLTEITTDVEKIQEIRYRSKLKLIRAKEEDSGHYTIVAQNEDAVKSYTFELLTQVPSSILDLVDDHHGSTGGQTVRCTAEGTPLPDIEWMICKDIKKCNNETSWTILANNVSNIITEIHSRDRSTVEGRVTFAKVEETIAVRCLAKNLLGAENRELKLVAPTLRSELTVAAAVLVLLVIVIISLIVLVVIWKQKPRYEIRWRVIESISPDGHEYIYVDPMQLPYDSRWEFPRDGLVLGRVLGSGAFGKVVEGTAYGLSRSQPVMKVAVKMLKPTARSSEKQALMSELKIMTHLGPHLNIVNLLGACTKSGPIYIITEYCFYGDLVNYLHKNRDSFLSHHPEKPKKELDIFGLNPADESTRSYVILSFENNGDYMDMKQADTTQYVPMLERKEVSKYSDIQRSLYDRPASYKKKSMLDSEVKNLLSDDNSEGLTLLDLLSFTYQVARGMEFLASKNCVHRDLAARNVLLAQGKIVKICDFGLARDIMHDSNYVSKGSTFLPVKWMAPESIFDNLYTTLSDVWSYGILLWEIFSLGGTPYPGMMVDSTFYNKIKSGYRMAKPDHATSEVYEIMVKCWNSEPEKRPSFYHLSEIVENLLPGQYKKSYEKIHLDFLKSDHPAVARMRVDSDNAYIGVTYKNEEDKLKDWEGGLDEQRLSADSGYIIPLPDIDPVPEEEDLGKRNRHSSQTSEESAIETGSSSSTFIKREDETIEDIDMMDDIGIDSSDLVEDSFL
Sequence of Vascular endothelial growth factor receptor 3 (P35916 whole entry): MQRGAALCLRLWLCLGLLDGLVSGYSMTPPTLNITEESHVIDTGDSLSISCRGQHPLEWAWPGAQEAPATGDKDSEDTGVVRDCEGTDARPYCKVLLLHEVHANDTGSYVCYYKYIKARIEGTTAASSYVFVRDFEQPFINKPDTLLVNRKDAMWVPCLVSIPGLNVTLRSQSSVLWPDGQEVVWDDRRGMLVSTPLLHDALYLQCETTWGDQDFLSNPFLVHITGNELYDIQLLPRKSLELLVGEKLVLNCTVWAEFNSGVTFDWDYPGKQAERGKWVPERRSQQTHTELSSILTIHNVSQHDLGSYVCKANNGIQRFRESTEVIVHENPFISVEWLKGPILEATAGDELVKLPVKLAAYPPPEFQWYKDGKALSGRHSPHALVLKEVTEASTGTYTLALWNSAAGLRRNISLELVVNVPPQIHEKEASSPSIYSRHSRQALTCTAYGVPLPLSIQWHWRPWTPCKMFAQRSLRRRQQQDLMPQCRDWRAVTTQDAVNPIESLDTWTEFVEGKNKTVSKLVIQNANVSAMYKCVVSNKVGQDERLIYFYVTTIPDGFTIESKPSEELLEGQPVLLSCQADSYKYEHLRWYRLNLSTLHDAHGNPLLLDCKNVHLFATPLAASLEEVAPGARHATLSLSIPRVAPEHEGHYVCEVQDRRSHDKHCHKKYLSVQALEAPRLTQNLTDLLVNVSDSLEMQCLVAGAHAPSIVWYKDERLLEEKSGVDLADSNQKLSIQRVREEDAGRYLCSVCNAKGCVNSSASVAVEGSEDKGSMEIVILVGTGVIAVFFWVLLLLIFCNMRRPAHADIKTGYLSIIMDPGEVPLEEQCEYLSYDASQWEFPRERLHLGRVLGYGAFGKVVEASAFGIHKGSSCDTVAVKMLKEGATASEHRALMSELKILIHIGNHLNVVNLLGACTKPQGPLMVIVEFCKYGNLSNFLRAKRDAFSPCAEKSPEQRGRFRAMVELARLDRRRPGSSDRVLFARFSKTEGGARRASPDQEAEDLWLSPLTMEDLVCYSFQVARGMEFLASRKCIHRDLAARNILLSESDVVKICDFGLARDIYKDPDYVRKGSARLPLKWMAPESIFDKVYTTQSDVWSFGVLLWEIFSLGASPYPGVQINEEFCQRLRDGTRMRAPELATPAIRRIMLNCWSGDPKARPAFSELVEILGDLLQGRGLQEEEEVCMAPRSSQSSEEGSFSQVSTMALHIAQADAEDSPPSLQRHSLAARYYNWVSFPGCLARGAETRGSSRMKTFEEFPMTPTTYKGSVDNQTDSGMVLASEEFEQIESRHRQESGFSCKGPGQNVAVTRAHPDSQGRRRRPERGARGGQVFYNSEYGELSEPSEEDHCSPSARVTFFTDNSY
Sequence of Aurora kinase C (Q9UQB9 whole entry): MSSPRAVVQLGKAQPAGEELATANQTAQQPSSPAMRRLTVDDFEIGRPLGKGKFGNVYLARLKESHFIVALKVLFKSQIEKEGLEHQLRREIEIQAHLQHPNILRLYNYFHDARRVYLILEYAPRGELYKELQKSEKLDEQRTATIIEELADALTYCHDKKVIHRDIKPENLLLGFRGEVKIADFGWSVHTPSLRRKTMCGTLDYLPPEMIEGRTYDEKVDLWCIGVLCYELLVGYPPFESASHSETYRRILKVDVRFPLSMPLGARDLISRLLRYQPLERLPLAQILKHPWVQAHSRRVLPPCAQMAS
Sequence of RAC-alpha serine/threonine-protein kinase (P31749 whole entry): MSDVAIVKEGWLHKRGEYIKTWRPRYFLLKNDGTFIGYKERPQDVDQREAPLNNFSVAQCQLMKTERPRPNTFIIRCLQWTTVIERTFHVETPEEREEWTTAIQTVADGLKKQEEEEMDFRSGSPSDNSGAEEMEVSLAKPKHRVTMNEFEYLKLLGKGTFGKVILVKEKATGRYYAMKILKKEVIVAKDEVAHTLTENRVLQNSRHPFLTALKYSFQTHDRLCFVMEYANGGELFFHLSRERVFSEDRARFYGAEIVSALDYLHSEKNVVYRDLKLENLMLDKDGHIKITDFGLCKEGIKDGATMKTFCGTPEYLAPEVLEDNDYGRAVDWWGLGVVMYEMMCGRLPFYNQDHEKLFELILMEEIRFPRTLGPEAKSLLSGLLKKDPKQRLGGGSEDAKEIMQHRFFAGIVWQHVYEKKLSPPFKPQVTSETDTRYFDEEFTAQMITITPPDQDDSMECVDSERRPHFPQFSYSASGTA
Sequence of Mitogen-activated protein kinase 1 (P28482 whole entry): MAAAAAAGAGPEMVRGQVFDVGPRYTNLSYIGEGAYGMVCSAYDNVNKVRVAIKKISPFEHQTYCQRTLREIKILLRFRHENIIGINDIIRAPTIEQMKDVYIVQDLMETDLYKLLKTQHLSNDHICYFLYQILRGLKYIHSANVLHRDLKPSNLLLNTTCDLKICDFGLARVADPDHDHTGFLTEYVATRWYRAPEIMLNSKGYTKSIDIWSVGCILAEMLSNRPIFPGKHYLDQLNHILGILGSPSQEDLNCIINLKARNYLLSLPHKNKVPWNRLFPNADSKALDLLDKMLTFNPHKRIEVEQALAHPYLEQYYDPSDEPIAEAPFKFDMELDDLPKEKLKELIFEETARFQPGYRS
Sequence of Glycogen synthase kinase-3 beta (P49841 whole entry): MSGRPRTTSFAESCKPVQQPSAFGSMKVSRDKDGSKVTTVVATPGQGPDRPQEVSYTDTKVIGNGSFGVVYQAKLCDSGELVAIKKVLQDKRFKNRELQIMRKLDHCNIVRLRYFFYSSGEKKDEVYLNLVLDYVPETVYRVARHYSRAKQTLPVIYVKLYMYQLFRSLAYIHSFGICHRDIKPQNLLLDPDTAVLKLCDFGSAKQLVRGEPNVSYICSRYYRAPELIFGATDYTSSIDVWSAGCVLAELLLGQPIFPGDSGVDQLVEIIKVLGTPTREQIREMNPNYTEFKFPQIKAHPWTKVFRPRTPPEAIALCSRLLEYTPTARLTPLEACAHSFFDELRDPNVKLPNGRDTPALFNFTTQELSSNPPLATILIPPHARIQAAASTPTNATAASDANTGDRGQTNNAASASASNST

Work on `O=C1/C(=C\c2ccc(O)c(O)c2)Oc2ccccc21` yielded an IC50 [1] of 19.8 µM, an inhibition in vivo at 10 mg/kg [2] of 39.2% and an IC50 [3] of 5.19 µM. It also gave an IC50 [4] of 100 µM, an IC50 [5] of 2.63 µM and an IC50 [6] of 20.7 µM. The IC50 [7] was 45.5 µM, the inhibition [8] was “Active” and the Activity [9] was “Non-toxic”. For the same compound, the inhibition [10] was “Active”, the IC50 [11] was greater than 50 µM and the inhibition [12] was “Dose-dependent effect”. For the same compound, the inhibition [13] was “Dose-dependent effect”, the IC50 [14] was 1.34 µM and the Kd [15] was 12.9 µM. For the same compound, the inhibition [16] was “Active”, the IC50 [17] was 13.4 µM and the IC50 [18] was 38.6 µM. The IC50 [19] was 4.75 µM, the inhibition [20] was “Active” and the IC50 [21] was 4.04 µM. For the same compound, the IC50 [22] was greater than 50 µM, the inhibition [23] was “Dose-dependent effect” and the “growth inhibition (GI)” value [24] was “Active”. For the same compound, the inhibition [25] was “Active”, the inhibition [26] was “Active” and the IC50 [27] was 3.9 µM. It also gave a Kd [28] of 3.06 µM, an IC50 [29] of 5.96 µM and a Ratio [30] of 1.3. The IC50 [31] was 8.2 µM, the IC50 [32] was 28.7 µM and the Ratio [33] was 2. For the same compound, the inhibition [34] was “Active” and the Activity [35] was 1.71 g.
